Assay results: the supplement of paper PMC11208160

Assay: recombinant UMI read abundance after kanamycin selection (control-corrected) (log10(CPM+1)); higher = more efficient recombination; extreme values may be limits of the assay; sequences stand for … in AGTGCAGAGAAAATCGGCCAGTTTTCTCTGCCTGCAGTCCGCATGCCGTGGGACCCCTTGGGTTCTAACCTGTTGCCTAGATTTATGCAGCGGACTGCCTTTCTCCCAAAGTGATAAACCGG…AGGTTGGTTTCACT; site = the 11-nt donor
Summary of the method: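 Pooled Escherichia coli screen of donor and donor-binding-loop pairs for the IS621 bridge recombinase. Each pair sits with a 12-nt UMI on a plasmid carrying a promoterless kanamycin gene. The library was co-electroporated with a target plasmid encoding a fixed target and T7-inducible recombinase, then plated with IPTG (0.07 mM) plus kanamycin, or unselected, each in two replicates. Recombinant UMIs were PCR-amplified across the donor–target junction and sequenced. Counts became CPM, averaged over replicates, scaled by control-derived factors and reported as log10(CPM+1).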
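Also: IS621 bridge recombinase in Escherichia coli cells against a fixed T5 target plasmid.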

“AGCCTAGCATGGACCGGTTTTCCCGGTAATCCGTATTTGTT (site AGCCCAGCTAA)” and “AGCCTAGCATGGACCGGTTTTCCCGGTAATCCGTATTTGTT (site AGCCGAGCTAA)” are within 0.2 log units of each other in “recombinant UMI read abundance (log10)” value: 0.00418 for the first, 0.0175 for the second.

“AGCCTAGCATGGACCGGTTTTCCCGGTAATCCGTATTTGTT (site AGCCTAACTAA)” and “AGCCTAGCATGGACCGGTTTTCCCGGTAATCCGTATTTGTT (site AGCCTACCTAA)” are within 0.2 log units of each other in “recombinant UMI read abundance (log10)” value: 0.0384 for the first, 0.0078 for the second.

“AGCCTAGCATGGACCGGTTTTCCCGGTAATCCGTATTTGTT (site AGCCTAGCTAA)” and “AGCCTAGCATGGACCGGTTTTCCCGGTAATCCGTATTTGTT (site AGCCTAGCTAC)” are within 0.2 log units of each other in “recombinant UMI read abundance (log10)” value: 0.0154 for the first, 0 for the second.

“AGCCTAGCATGGACCGGTTTTCCCGGTAATCCGTATTTGTT (site AGCCTAGCTAG)” and “AGCCTAGCATGGACCGGTTTTCCCGGTAATCCGTATTTGTT (site AGCCTAGCTAT)” are within 0.2 log units of each other in “recombinant UMI read abundance (log10)” value: 0 for the first, 0.0124 for the second.

“AGCCTAGCATGGACCGGTTTTCCCGGTAATCCGTATTTGTT (site AGCCTAGCTCA)” and “AGCCTAGCATGGACCGGTTTTCCCGGTAATCCGTATTTGTT (site AGCCTAGCTGA)” are within 0.2 log units of each other in “recombinant UMI read abundance (log10)” value: 0.0329 for the first, 0 for the second.

“AGCCTAGCATGGACCGGTTTTCCCGGTAATCCGTATTTGTT (site AGCCTAGCTTA)” and “AGCCTAGCATGGACCGGTTTTCCCGGTAATCCGTATTTGTT (site AGCCTATCTAA)” are within 0.2 log units of each other in “recombinant UMI read abundance (log10)” value: 0.00455 for the first, 0.00805 for the second.

“AGCCTAGCATGGACCGGTTTTCCCGGTAATCCGTATTTGTT (site AGCCTCGCTAA)” and “AGCCTAGCATGGACCGGTTTTCCCGGTAATCCGTATTTGTT (site AGCCTGGCTAA)” are within 0.2 log units of each other in “recombinant UMI read abundance (log10)” value: 0.0288 for the first, 0.0296 for the second.

“AGCCTAGCATGGACCGGTTTTCCCGGTAATCCGTATTTGTT (site AGCCTTGCTAA)” and “AGCCTAGCATGGACCGGTTTTCCCGGTAATCCGTATTTGTT (site AGCGTAGCTAA)” are within 0.2 log units of each other in “recombinant UMI read abundance (log10)” value: 0.0186 for the first, 0.00795 for the second.

“AGCCTAGCATGGACCGGTTTTCCCGGTAATCCGTATTTGTT (site AGCTTAGCTAA)” and “AGCCTAGCATGGACCGGTTTTCCCGGTAATCCGTATTTGTT (site AGGCTAGCTAA)” are within 0.2 log units of each other in “recombinant UMI read abundance (log10)” value: 0.0228 for the first, 0.00253 for the second.

“AGCCTAGCATGGACCGGTTTTCCCGGTAATCCGTATTTGTT (site AGTCTAGCTAA)” and “AGCCTAGCATGGACCGGTTTTCCCGGTAATCCGTATTTGTT (site ATCCTAGCTAA)” are within 0.2 log units of each other in “recombinant UMI read abundance (log10)” value: 0.0113 for the first, 0.0142 for the second.

“AGCCTAGCATGGACCGGTTTTCCCGGTAATCCGTATTTGTT (site CGCCTAGCTAA)” and “AGCCTAGCATGGACCGGTTTTCCCGGTAATCCGTATTTGTT (site GGCCTAGCTAA)” are within 0.2 log units of each other in “recombinant UMI read abundance (log10)” value: 0.00222 for the first, 0.0159 for the second.

“AGCCTAGCATGGACCGGTTTTCCCGGTAATCCGTATTTGTT (site TGCCTAGCTAA)” and “AGCCTGGCATGGACCGGTTTTCCCGGTAATCCGTATTTGAC (site AGCCTGGCTGT)” are within 0.2 log units of each other in “recombinant UMI read abundance (log10)” value: 0.00782 for the first, 0 for the second.

“AGCCTTTCATGGACCGGTTTTCCCGGTAATCCGTATTTGAA (site AGCCTTTCTAT)” and “AGCCTTTCATGGACCGGTTTTCCCGGTAATCCGTATTTGAA (site AGCCTTTCTCT)” are within 0.2 log units of each other in “recombinant UMI read abundance (log10)” value: 0 for the first, 0.00501 for the second.

“AGCCTTTCATGGACCGGTTTTCCCGGTAATCCGTATTTGAA (site AGCCTTTCTGT)” and “AGCCTTTCATGGACCGGTTTTCCCGGTAATCCGTATTTGAA (site AGCCTTTCTTT)” are the same in “recombinant UMI read abundance (log10)” value: 0 for the first, 0 for the second.

“AGCCTTTCATGGACCGGTTTTCCCGGTAATCCGTATTTGAC (site AACCTTTCTGT)” and “AGCCTTTCATGGACCGGTTTTCCCGGTAATCCGTATTTGAC (site ACCCTTTCTGT)” are the same in “recombinant UMI read abundance (log10)” value: 0 for the first, 0 for the second.

“AGCCTTTCATGGACCGGTTTTCCCGGTAATCCGTATTTGAC (site AGACTTTCTGT)” and “AGCCTTTCATGGACCGGTTTTCCCGGTAATCCGTATTTGAC (site AGCATTTCTGT)” are within 0.2 log units of each other in “recombinant UMI read abundance (log10)” value: 0 for the first, 0.00674 for the second.

“AGCCTTTCATGGACCGGTTTTCCCGGTAATCCGTATTTGAC (site AGCCATTCTGT)” and “AGCCTTTCATGGACCGGTTTTCCCGGTAATCCGTATTTGAC (site AGCCCTTCTGT)” are the same in “recombinant UMI read abundance (log10)” value: 0 for the first, 0 for the second.

Compared with “AGCCTTTCATGGACCGGTTTTCCCGGTAATCCGTATTTGAC (site AGCCGTTCTGT)”, “AGCCTTTCATGGACCGGTTTTCCCGGTAATCCGTATTTGAC (site AGCCTATCTGT)” is higher in “recombinant UMI read abundance (log10)” value: 0 for the first, 1.73 for the second.

“AGCCTTTCATGGACCGGTTTTCCCGGTAATCCGTATTTGAC (site AGCCTCTCTGT)” and “AGCCTTTCATGGACCGGTTTTCCCGGTAATCCGTATTTGAC (site AGCCTGTCTGT)” are the same in “recombinant UMI read abundance (log10)” value: 0 for the first, 0 for the second.

“AGCCTTTCATGGACCGGTTTTCCCGGTAATCCGTATTTGAC (site AGCCTTACTGT)” and “AGCCTTTCATGGACCGGTTTTCCCGGTAATCCGTATTTGAC (site AGCCTTCCTGT)” are the same in “recombinant UMI read abundance (log10)” value: 0 for the first, 0 for the second.

“AGCCTTTCATGGACCGGTTTTCCCGGTAATCCGTATTTGAC (site AGCCTTGCTGT)” and “AGCCTTTCATGGACCGGTTTTCCCGGTAATCCGTATTTGAC (site AGCCTTTCTAT)” are the same in “recombinant UMI read abundance (log10)” value: 0 for the first, 0 for the second.

“AGCCTTTCATGGACCGGTTTTCCCGGTAATCCGTATTTGAC (site AGCCTTTCTCT)” and “AGCCTTTCATGGACCGGTTTTCCCGGTAATCCGTATTTGAC (site AGCCTTTCTGA)” are within 0.2 log units of each other in “recombinant UMI read abundance (log10)” value: 0.00414 for the first, 0 for the second.

“AGCCTTTCATGGACCGGTTTTCCCGGTAATCCGTATTTGAC (site AGCCTTTCTGC)” and “AGCCTTTCATGGACCGGTTTTCCCGGTAATCCGTATTTGAC (site AGCCTTTCTGG)” are the same in “recombinant UMI read abundance (log10)” value: 0 for the first, 0 for the second.

“AGCCTTTCATGGACCGGTTTTCCCGGTAATCCGTATTTGAC (site AGCCTTTCTGT)” and “AGCCTTTCATGGACCGGTTTTCCCGGTAATCCGTATTTGAC (site AGCCTTTCTTT)” are the same in “recombinant UMI read abundance (log10)” value: 0 for the first, 0 for the second.

“AGCCTTTCATGGACCGGTTTTCCCGGTAATCCGTATTTGAC (site AGCGTTTCTGT)” and “AGCCTTTCATGGACCGGTTTTCCCGGTAATCCGTATTTGAC (site AGCTTTTCTGT)” are the same in “recombinant UMI read abundance (log10)” value: 0 for the first, 0 for the second.

“AGCCTTTCATGGACCGGTTTTCCCGGTAATCCGTATTTGAC (site AGGCTTTCTGT)” and “AGCCTTTCATGGACCGGTTTTCCCGGTAATCCGTATTTGAC (site AGTCTTTCTGT)” are the same in “recombinant UMI read abundance (log10)” value: 0 for the first, 0 for the second.

“AGCCTTTCATGGACCGGTTTTCCCGGTAATCCGTATTTGAC (site ATCCTTTCTGT)” and “AGCCTTTCATGGACCGGTTTTCCCGGTAATCCGTATTTGAC (site CGCCTTTCTGT)” are the same in “recombinant UMI read abundance (log10)” value: 0 for the first, 0 for the second.

“AGCCTTTCATGGACCGGTTTTCCCGGTAATCCGTATTTGAC (site GGCCTTTCTGT)” and “AGCCTTTCATGGACCGGTTTTCCCGGTAATCCGTATTTGAC (site TGCCTTTCTGT)” are the same in “recombinant UMI read abundance (log10)” value: 0 for the first, 0 for the second.

“AGCCTTTCATGGACCGGTTTTCCCGGTAATCCGTATTTGCC (site AGCCTTTCTGA)” and “AGCCTTTCATGGACCGGTTTTCCCGGTAATCCGTATTTGCC (site AGCCTTTCTGC)” are the same in “recombinant UMI read abundance (log10)” value: 0 for the first, 0 for the second.

Going from “AGCCTTTCATGGACCGGTTTTCCCGGTAATCCGTATTTGCC (site AGCCTTTCTGG)” to “AGCCTTTCATGGACCGGTTTTCCCGGTAATCCGTATTTGCC (site AGCCTTTCTGT)”, the “recombinant UMI read abundance (log10)” value falls from 1.05 to 0.

First: AGCGCAGCATGGACCGGTTTTCCCGGTAATCCGTATTTGCG (site AGCGCAGCTCG)
Second: AGCGCAGCATGGACCGGTTTTCCCGGTAATCCGTATTTGGG (site AGCACAGCTCC)
The “recombinant UMI read abundance (log10)” value of the first is higher: 1.01 for the first, 0 for the second.

“AGCGCAGCATGGACCGGTTTTCCCGGTAATCCGTATTTGGG (site AGCCCAGCTCC)” and “AGCGCAGCATGGACCGGTTTTCCCGGTAATCCGTATTTGGG (site AGCGCAGCTCC)” are within 0.2 log units of each other in “recombinant UMI read abundance (log10)” value: 0.0111 for the first, 0.0103 for the second.

Compared with “AGCGCAGCATGGACCGGTTTTCCCGGTAATCCGTATTTGGG (site AGCTCAGCTCC)”, “AGCGCGACATGGACCGGTTTTCCCGGTAATCCGTATTTGAG (site AGCGCGACTCT)” is higher in “recombinant UMI read abundance (log10)” value: 0.0119 for the first, 1.27 for the second.

“AGCGGTCCATGGACCGGTTTTCCCGGTAATCCGTATTTGAC (site AGCGGTCCTGT)” and “AGCTAACCATGGACCGGTTTTCCCGGTAATCCGTATTTGAA (site AGCTAACCTTT)” are within 0.2 log units of each other in “recombinant UMI read abundance (log10)” value: 0 for the first, 0.00558 for the second.
